According to article PMC8779255, “Determining the Anticancer Activity of Sphingosine Kinase Inhibitors Containing Heteroatoms in Their Tail Structure” (Pharmaceutics, 2022):
Entries after “also recorded” stand apart in the source; their conditions may differ.

Experiments:
SK1 = conditions: known compounds, Figure 1; cited from earlier work
SK2 = conditions: Figure 1, cited from earlier work; for IC50: known compounds
PP2A in HCT116 cells = target: T1, PP2A in HCT116 cells (Homo sapiens, UniProt P67775); assay: PP2A activity assay (immunoprecipitation kit); type: cell-based; conditions: for PP2A activity (activation): HCT116, 20 µM, 24 h
T1 construct: endogenous in cells; host or cells: HCT116
Protocol: The activity of PP2A was measured by using the PP2A kit according to the manufacturer’s instruction. The cell lysate was incubated with anti PP2A, C subunit antibody, and protein A agarose slurry for 2 h at 4 °C. The phosphopeptide solution (60 µL) was mixed and incubated at 30 °C for 10 min in a shaker. After a brief centrifuge, a 25 µL sample was liquated in ½ volume microplate and 100 µL malachite green phosphate detection working solution was added. After color development, absorbance was taken at 650 nm in a Multiskan GO microplate reader. A phosphate standard curve was constructed using phosphate standard, and results were calculated using this standard curve. This experiment was repeated three times (n = 6).

SK1 enzyme = target: T2, SK1 enzyme (Homo sapiens, UniProt Q9NYA1); assay: SK activity assay (Adapta screening system); type: biochemical; conditions: 20 μM, Figure 5
T2 construct: purchased Thermo Fisher Scientific
Protocol: The effect of compounds in sphingosine kinase activity was examined using the […] screening system (Thermo Fisher Scientific System, Waltham, MA, USA). The kinase inhibition ability of compounds 1-11 along with RB005 was measured with final concentration of 20 μM. […] The data were presented as percentage inhibition of SK enzyme by individual compounds.

[1] = test system: AKT and ERK phosphorylation in HCT116 cells; assay: Western blotting of pAKT and pERK; type: cell-based, human; conditions: HCT116, 20 µM
Protocol: The cell lysate was prepared after successive treatment using mammalian protein extraction buffer (Organic buffer + 10 mM NaCl + detergent pH 7.5) mixed with 1% protease/phosphatase inhibitor cocktail; protein was quantified with BCA assay, boiled at 95 °C for 10 min by adding sample loading buffer, separated using SDS-PAGE, and transferred into methanol-activated PVDF membrane. Primary antibodies were probed overnight in PVDF membrane at 4 °C and […] with subsequent HRP anti-mouse and anti-rabbit secondary antibodies at room temperature. Then, membranes were washed with TBST buffer, and images were detected by Amersham Imager 680 (GE Healthcare; Leiden, WZ, The Netherlands) using ECL solution. Band intensities were analyzed and quantified using Image J software (version 1.53i).

HT29 cells [2] = assay: Annexin V-FITC/PI staining, flow cytometry; type: cell-based, human; conditions: HT29, 10 and/or 20 µM, 24 h
Protocol: After treating HT29 and HCT116 cells with compounds 10, 11, 13 and FTY720 according to the manufacturer’s instruction, the annexin V and PI staining technique was employed to determine apoptosis in the cells. Briefly, cells (2.5 × 10^5 cells/well) were seeded in 12-well plates and treated with 10 and/or 20 µM of compounds for 24 h. Cells were collected using trypsin-EDTA and stained with annexin V-FITC dye for 15 min at room temperature, followed by PI staining for 20 min and analyzed by flow cytometer (MACSQuant Analyzer 10; Miltenyi Biotec, Bergisch Gladbach, Germany). The data was analyzed using MACSQuantify^TM version 2.8 software (Miltenyi Biotec, Bergisch Gladbach, Germany) and presented as early apoptosis, late apoptosis, or combined apoptosis percentage. Each experiment was repeated three times independently (n = 6).

CYP1A2 = target: T3, CYP1A2 (Homo sapiens, UniProt P05177); assay: Inhibition of CYP enzymes activity, human liver microsomes; conditions: human liver microsomes 0.25 mg/mL, 10 μM, phenacetin substrate
T3 sequence (P05177 1-516): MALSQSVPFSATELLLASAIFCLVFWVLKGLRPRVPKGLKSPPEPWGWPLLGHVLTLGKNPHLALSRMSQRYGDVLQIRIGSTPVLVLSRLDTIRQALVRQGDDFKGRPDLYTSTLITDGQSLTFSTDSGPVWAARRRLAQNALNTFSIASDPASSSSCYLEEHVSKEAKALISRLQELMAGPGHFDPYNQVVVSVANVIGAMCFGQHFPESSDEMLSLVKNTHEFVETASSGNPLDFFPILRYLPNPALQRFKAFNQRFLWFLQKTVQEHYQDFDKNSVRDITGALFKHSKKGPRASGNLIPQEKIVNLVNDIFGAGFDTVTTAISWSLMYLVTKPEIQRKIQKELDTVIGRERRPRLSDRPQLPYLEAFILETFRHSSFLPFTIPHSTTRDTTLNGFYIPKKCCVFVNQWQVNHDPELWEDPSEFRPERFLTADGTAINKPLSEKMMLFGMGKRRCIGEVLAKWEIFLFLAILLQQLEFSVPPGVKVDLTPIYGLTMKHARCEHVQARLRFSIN

CYP2C9 = CYP2C9 (Homo sapiens, UniProt P11712); assay: as above; conditions: human liver microsomes 0.25 mg/mL, 10 μM, diclofenac substrate
CYP2C19 = CYP2C19 (Homo sapiens, UniProt P33261); assay: as above; conditions: human liver microsomes 0.25 mg/mL, 10 μM, S-mephenytoin substrate
HCT116 cells = assay: MTT cell viability assay; type: cell-based, human; conditions: for cytotoxic effect (cell viability): HCT116, 20 and 40 µM, 24 h, Figure 2B
Protocol: (§1) The HT29 and HCT116 cells (human colon cancer), AGS (human gastric cancer), and MIA PaCa-2 cells (human pancreatic cancer) were purchased from Korean Cell Line Bank (Seoul, Korea). Cancer cells were maintained in RPMI (HT29 and AGS) and DMEM (HCT116 and MIA PaCa-2) culture media supplemented with 10% fetal bovine serum (FBS) and 100 U/mL penicillin and streptomycin at 37 °C in a 95% humidified incubator containing 5% CO2. The cytotoxic effect of the compounds was assessed using the MTT cell viability assay. Briefly, 3 × 10^3 cells/well were grown in 96-well plates for 24 h. After treatment with desired concentration of respective compounds for 24 h or 48 h, the EZ-CYTOTOX (10 µM) reagent was added in each well and incubated for 90 min. The absorbance was measured at 450 nm wavelength using Skanlt software 5.0 (Thermo Scientific, Waltham, MA, USA) installed on a Multiskan GO (Thermo Scientific, Waltham, MA, USA) spectrophotometer. Each experiment was independently repeated three times (n = 12).

HT29 cells [3] = assay: MTT cell viability assay; type: cell-based, human; conditions: HT29, 20 and 40 µM, 24 h, Figure 2A
Protocol: as §1

[4] = In vitro metabolic stability in liver microsomes; type: in vitro ADME, rat
[5] = In vitro metabolic stability in liver microsomes; type: in vitro ADME, mouse
CYP2D6 = CYP2D6 (Homo sapiens, UniProt P10635); assay: Inhibition of CYP enzymes activity, human liver microsomes; conditions: human liver microsomes 0.25 mg/mL, 10 μM, dextromethorphan substrate
[6] = In vitro metabolic stability in liver microsomes
[7] = % remaining after 30 min, NADPH

T2 sequence (Q9NYA1 whole entry): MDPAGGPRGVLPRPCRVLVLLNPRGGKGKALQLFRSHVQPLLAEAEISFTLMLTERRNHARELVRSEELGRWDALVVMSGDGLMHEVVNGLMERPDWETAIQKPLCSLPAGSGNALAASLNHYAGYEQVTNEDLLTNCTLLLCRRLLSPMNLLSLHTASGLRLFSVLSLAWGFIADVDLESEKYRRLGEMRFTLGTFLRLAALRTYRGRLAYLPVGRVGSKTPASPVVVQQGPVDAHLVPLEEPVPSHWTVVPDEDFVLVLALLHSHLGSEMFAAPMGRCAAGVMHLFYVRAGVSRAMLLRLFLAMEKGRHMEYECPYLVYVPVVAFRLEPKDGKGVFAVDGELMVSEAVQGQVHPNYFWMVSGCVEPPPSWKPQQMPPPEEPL
T1 sequence (P67775 whole entry): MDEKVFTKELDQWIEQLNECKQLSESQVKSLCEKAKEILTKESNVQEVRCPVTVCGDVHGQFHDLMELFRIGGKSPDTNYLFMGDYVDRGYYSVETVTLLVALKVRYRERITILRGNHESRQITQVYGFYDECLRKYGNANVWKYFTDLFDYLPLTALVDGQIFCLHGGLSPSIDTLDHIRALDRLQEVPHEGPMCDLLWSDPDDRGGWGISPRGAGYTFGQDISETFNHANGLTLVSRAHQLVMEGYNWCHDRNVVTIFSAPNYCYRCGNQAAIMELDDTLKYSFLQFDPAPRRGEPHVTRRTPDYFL
CYP2C19, sequence (P33261 whole entry): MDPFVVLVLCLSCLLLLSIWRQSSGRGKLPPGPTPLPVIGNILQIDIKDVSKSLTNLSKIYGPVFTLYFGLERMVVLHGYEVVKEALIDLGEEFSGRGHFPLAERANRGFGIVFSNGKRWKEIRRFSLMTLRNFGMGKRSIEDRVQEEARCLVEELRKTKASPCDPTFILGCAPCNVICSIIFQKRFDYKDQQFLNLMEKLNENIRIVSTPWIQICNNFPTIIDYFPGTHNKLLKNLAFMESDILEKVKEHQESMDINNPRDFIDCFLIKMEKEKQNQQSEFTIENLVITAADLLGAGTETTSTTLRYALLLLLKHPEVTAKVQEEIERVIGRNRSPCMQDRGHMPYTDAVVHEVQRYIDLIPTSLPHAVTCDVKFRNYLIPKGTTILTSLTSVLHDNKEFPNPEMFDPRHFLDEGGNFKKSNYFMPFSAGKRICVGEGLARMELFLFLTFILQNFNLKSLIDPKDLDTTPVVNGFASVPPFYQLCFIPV
CYP2D6, sequence (P10635 whole entry): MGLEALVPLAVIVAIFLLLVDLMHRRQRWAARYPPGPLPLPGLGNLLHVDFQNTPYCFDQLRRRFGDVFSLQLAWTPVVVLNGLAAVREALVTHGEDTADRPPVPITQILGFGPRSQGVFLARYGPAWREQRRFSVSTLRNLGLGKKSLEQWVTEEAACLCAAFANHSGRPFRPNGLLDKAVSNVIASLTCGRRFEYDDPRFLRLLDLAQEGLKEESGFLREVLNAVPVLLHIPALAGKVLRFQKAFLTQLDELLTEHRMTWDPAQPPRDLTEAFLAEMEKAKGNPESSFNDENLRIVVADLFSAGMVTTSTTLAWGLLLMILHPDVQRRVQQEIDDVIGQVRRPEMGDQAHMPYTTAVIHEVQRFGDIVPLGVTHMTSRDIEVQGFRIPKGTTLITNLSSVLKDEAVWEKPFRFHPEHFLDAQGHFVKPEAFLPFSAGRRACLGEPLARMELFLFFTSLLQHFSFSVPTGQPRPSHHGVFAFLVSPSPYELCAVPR
CYP2C9, sequence (P11712 whole entry): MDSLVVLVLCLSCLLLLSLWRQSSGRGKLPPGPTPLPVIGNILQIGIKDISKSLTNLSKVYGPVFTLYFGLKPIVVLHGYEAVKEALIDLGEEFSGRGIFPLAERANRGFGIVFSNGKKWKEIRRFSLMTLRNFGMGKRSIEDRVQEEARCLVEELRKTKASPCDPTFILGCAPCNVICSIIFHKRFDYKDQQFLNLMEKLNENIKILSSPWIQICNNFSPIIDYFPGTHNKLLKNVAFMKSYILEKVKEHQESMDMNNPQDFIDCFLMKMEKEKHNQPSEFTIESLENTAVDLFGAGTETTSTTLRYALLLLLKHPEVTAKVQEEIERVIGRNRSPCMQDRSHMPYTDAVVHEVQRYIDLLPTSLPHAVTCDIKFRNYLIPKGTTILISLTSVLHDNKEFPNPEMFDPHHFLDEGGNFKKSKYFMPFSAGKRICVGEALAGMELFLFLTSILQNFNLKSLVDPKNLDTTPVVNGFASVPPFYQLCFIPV

Structure (SMILES): CCCCOc1ccc(CCC=C2SC(=O)N(CCN)C2=O)cc1 [Compound K145]
- IC50 (SK1): > 10 µM
- IC50 (SK2): 4.3 µM

Structure (SMILES): O=S(=O)(Oc1ccc(CCN2CCC[C@@H]2CO)cc1)c1ccccc1 [Compound 11, (R)-4-(2-(2-(Hydroxymethyl)pyrrolidin-1-yl)ethyl)phenyl benzenesulfonate]
- PP2A activity (activation) (PP2A in HCT116 cells): no effect on PP2A activation; also recorded: did not increase PP2A activity
- SK1 inhibitory effect (SK1 enzyme): three-fold higher SK1 inhibitory effect than RB005
- selectivity to SK1 (over SK2) (SK1 enzyme): more selectivity than RB005
- phosphorylation of AKT and ERK [1]: did not decrease phosphorylation of AKT and ERK
- apoptosis (annexin V assay) (HT29 cells [2]): did not significantly induce apoptosis

Structure (SMILES): CC(=O)N1CCN(c2ccc(OCC3COC(Cn4ccnc4)(c4ccc(Cl)cc4Cl)O3)cc2)CC1 (stereo not shown) [Ketoconazole]
- CYP1A2 activity (% of control activity) (CYP1A2): >100%
- CYP2C9 activity (% of control activity) (CYP2C9): >100%
- CYP2C19 activity (% of control activity) (CYP2C19): >100%

Structure (SMILES): CCCCCCCCc1ccc(CCN2CCC(O)CC2)cc1 [RB005, reference compound]
- PP2A activity increase (PP2A in HCT116 cells; HCT116, 24 h, 20 µM of compounds 10, 11 and 13, vs nontreated control cells): 1.59 fold
- cytotoxic effect, comparison (HCT116 cells; HCT116, 10, 20 and 40 µM, Supplementary Figure S1C): higher than compounds 11, 13, and PF-543

Structure (SMILES): CCCCCCCOc1ccc(CCN2CCNCC2)cc1 [Compound 9, 1-(4-(Heptyloxy)phenethyl)piperazine]
- cytotoxic effect (cell viability) (HT29 cells [3]): more cytotoxic than RB005 and 5-FU
- cytotoxic effect (cell viability) (HCT116 cells): only 40 µM concentration of compounds 3, 5 and 9 shows significant cytotoxic effect

Structure (SMILES): Cc1cc(CS(=O)(=O)c2ccccc2)cc(OCc2ccc(CN3CCC[C@@H]3CO)cc2)c1 [PF-543]
- liver microsomal stability, Rat (%) [4, 7]: 8.1%
- liver microsomal stability (in words) ([4]; rat): unstable
- CYP1A2 activity (% of control activity) (CYP1A2): 80.9%
- liver microsomal stability, Mouse (%) [5, 7]: 6.5%
- liver microsomal stability (in words) ([5]; mouse): unstable
- CYP2D6 activity (% of control activity) (CYP2D6): 63.9%
- liver microsomal stability, Human (%) ([6]; % remaining after 30 min, 0.5 mg/mL microsomes, NADPH): 13.5%
- liver microsomal stability (in words) ([6]; human): unstable

Structure (SMILES): CCCCCCCOc1ccc(CCN2CCC(C)CC2)cc1 [Compound 7, 1-(4-(Heptyloxy)phenethyl)-4-methylpiperidine]
- cytotoxic effect (cell viability) (HCT116 cells): significant cytotoxic effects in both 20 and 40 µM concentrations

Structure (SMILES): CCCCCCCOc1ccc(CCN2CCCC(CO)C2)cc1 (stereo not shown) [Compound 8, (1-(4-(Heptyloxy)phenethyl)piperidin-3-yl)methanol]
- cytotoxic effect (cell viability) (HT29 cells [3]): more cytotoxic than RB005 and 5-FU
- cytotoxic effect (cell viability) (HCT116 cells): significant cytotoxic effects in both 20 and 40 µM concentrations

Structure (SMILES): CCCCCCCOc1ccc(CCN2CCC[C@@H]2CO)cc1 [Compound 1, (R)-(1-(4-(Heptyloxy)phenethyl)pyrrolidin-2-yl)methanol]
- SK1 inhibitory effect (SK1 enzyme): highest SK1 inhibitory effect
- cytotoxic effect (cell viability) (HT29 cells [3]): more cytotoxic than RB005 and 5-FU
- cytotoxic effect (cell viability) (HCT116 cells): significant cytotoxic effects in both 20 and 40 µM concentrations

Structure (SMILES): O=S(=O)(Oc1ccc(CCN2CCC(O)CC2)cc1)c1ccccc1 [Compound 13, 4-(2-(4-Hydroxypiperidin-1-yl)ethyl)phenyl benzenesulfonate]
- PP2A activity (activation) (PP2A in HCT116 cells): no effect on PP2A activation; also recorded: did not increase PP2A activity
- selectivity to SK1 (over SK2) (SK1 enzyme): more selectivity than RB005
- phosphorylation of AKT and ERK [1]: did not decrease phosphorylation of AKT and ERK
- apoptosis (annexin V assay) (HT29 cells [2]): did not significantly induce apoptosis

Structure (SMILES): CCCCCCCOc1ccc(CCN2CCCCC2)cc1 [Compound 2, 1-(4-(Heptyloxy)phenethyl)piperidine]
- cytotoxic effect (cell viability) (HT29 cells [3]): more cytotoxic than RB005 and 5-FU
- cytotoxic effect (cell viability) (HCT116 cells): significant cytotoxic effects in both 20 and 40 µM concentrations

Structure (SMILES): CCCCCCCOc1ccc(CCN2CCC(CO)CC2)cc1 [Compound 6, (1-(4-(Heptyloxy)phenethyl)piperidin-4-yl)methanol]
- cytotoxic effect (cell viability) (HT29 cells [3]): more cytotoxic than RB005 and 5-FU
- cytotoxic effect (cell viability) (HCT116 cells): significant cytotoxic effects in both 20 and 40 µM concentrations

Structure (SMILES): CCCCCCCOc1ccc(CCN2CCC[C@H]2CO)cc1 [Compound 5, (S)-(1-(4-(Heptyloxy)phenethyl)pyrrolidin-2-yl)methanol]
- cytotoxic effect (cell viability) (HCT116 cells): only 40 µM concentration of compounds 3, 5 and 9 shows significant cytotoxic effect

Structure (SMILES): CCCCCCCCOc1ccc(-c2noc([C@@H]3CCCN3C(=N)N)n2)cc1C(F)(F)F [SLM6041434]
- Ki (SK2; known compound): 0.4 to 1.1 µM

Structure (SMILES): O=C(NCc1ccncc1)C12CC3CC(C1)CC(c1ccc(Cl)cc1)(C3)C2 [ABC294640]
- IC50 (SK1): > 100 µM
- IC50 (SK2): ~60 µM
